Measurements published in patent publication US10975037B2 (priority 2018, dated 2021).
pIC50, pKd: −log10 of the molar value. Counter-ions that a name gives are not always drawn. Like-named read-outs stand apart in the source and are kept apart here. Marks after values point to notes of the source that are not given here.

How the values were obtained:
full-length human RORγt = full-length human RORγt (Homo sapiens (Human), UniProt P51449); assay: RORγt (full-length human) reporter assay, conditions A or B, HEK293T cells; assay type: cell-based; settings: for inhibition at 6 µM: read-out: RORγt (FL) Reporter Assay A or B, % inhibition @ 6 μM, 6 μM compound concentration; for inhibition at 2 µM: 2 μM compound concentration
Method in brief: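 Dual-luciferase read-out was taken after an overnight (16–20 h) compound exposure. Firefly data were scaled between DMSO-only and saturating reference compound, Renilla-normalized, then plotted against concentration for IC50.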

[1] = target: human RORγt ligand binding domain (RORγt LBD) (Homo sapiens (Human), UniProt P51449); assay: RORγt ThermoFluor® assay (thermal shift binding)
Method in brief: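 Thermal shift with 0.065 mg/mL RORγt LBD and 60 μM 1,8-ANS in 100 mM Hepes pH 7.0, 10 mM NaCl, 2.5 mM GSH, 0.002% Tween-20.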

[2] = RORγt (FL) Reporter Assay A or B, IC50, HEK293T cells
[3] = read-out: ThermoFluor® Assay, Kd
[4] = HEK-293T, read-out: RORγt (FL) Reporter Assay A or B, % inhibition
[5] = HEK-293T, 3 μM compound concentration (footnote *), read-out: RORγt (FL) Reporter Assay A or B, % inhibition

Chain of human RORγt ligand binding domain (RORγt LBD) (P51449 other isoform, or with tags, fused parts or gaps): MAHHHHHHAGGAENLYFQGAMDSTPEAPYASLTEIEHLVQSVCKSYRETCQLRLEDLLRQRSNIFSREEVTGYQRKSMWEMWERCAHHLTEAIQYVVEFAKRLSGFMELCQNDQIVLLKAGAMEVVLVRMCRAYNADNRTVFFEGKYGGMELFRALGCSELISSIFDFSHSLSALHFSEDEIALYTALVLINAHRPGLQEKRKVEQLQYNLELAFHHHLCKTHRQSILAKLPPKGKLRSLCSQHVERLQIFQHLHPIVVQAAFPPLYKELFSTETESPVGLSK
Chain of full-length human RORγt (P51449 other isoform, or with tags, fused parts or gaps): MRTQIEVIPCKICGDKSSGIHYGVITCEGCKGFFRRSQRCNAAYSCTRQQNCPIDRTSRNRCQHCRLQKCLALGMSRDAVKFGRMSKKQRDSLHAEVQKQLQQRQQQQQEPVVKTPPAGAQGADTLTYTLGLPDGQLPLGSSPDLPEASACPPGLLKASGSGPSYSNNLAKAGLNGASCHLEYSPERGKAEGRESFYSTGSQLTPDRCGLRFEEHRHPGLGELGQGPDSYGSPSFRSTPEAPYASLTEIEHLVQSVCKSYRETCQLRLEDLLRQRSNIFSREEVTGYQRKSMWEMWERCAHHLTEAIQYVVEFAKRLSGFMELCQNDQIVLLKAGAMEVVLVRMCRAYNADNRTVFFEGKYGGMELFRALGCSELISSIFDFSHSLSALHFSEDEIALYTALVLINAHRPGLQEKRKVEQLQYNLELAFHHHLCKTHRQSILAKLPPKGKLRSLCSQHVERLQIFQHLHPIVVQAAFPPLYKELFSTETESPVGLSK

SMILES | pIC50 (full-length human RORγt; [2]) | pKd [1, 3] | inhibition at 2 µM (full-length human RORγt; [4]) [%] | pKd ([1]; ThermoFluor® Assay, Kd) | other results
CCn1nc(C(=O)NC[C@]2(O)CC[C@@H](S(C)(=O)=O)CC2)c(Cl)c1-c1ccc(CCC(F)(F)F)cc1OC [Example 39, 4-Chloro-1-ethyl-N-(((1s,4s)-1-hydroxy-4-(methylsulfonyl)cyclohexyl)methyl)-5-(2-methoxy-4-(3,3,3-trifluoropropyl)phenyl)-1H-pyrazole-3-carboxamide] | 7.42 | 8.00 | – | – | inhibition at 6 µM (full-length human RORγt; HEK-293T): 85%
CCn1nc(C(=O)NC[C@H]2CC[C@H](S(C)(=O)=O)CC2)c(Cl)c1-c1ccc(N[C@H](C)C(F)(F)F)cc1C [Example 184, 4-Chloro-1-ethyl-5-(2-methyl-4-(((R)-1,1,1-trifluoropropan-2-yl)amino)phenyl)-N-(((1r,4R)-4-(methylsulfonyl)cyclohexyl)methyl)-1H-pyrazole-3-carboxamide] | 7.28 | 7.89 | 101 | – | –
CCn1nc(C(=O)NC[C@]2(C(=O)O)CC[C@@H](S(C)(=O)=O)CC2)c(Cl)c1-c1ccc(N[C@H](C)C(F)(F)F)cc1OC (relative stereo) [Example 97, (1s*,4S*)-1-((4-Chloro-1-ethyl-5-(2-methoxy-4-(((R)-1,1,1-trifluoropropan-2-yl)amino)phenyl)-1H-pyrazole-3-carboxamido)methyl)-4-(methylsulfonyl)cyclohexane-1-carboxylic Acid] | 6.14 | – | – | 6.74 | inhibition at 6 µM (full-length human RORγt; HEK-293T): 94%
CCn1nc(C(=O)NC[C@H]2CC[C@H](S(C)(=O)=O)CC2)c(Cl)c1-c1ccc(NC(C(F)(F)F)C(F)(F)F)cc1OC [Example 216, 4-Chloro-1-ethyl-5-(4-((1,1,1,3,33-hexafluoropropan-2-yl)amino)-2-methoxyphenyl)-N-(((1r,4r)-4-(methylsulfonyl)cyclohexyl)methyl)-1H-pyrazole-3-carboxamide] | 7.55 | 9.01 | 107 | – | –
CCCn1nc(C(=O)NC[C@]2(O)CC[C@@H](S(C)(=O)=O)CC2)c(Cl)c1-c1ccc(C[C@@H](C)C(F)(F)F)cc1OC (single isomer, unassigned) [Example 42, 4-Chloro-N-(((1s,4S)-1-hydroxy-4-(methylsulfonyl)cyclohexyl)methyl)-5-(2-methoxy-4-((R*)-3,3,3-trifluoro-2-methylpropyl)phenyl)-1-propyl-1H-pyrazole-3-carboxamide] | 8.05 | – | 101 | 9.38 | –
CCn1nc(C(=O)NC[C@]2(O)CC[C@@H](S(C)(=O)=O)CC2)c(C)c1-c1ccc(CCC(F)(F)F)cc1OC [Example 225, 1-Ethyl-N-(((1s,4s)-1-hydroxy-4-(methylsulfonyl)cyclohexyl)methyl)-5-(2-methoxy-4-(3,3,3-trifluoropropyl)phenyl)-4-methyl-1H-pyrazole-3-carboxamide] | 7.03 | 7.59 | 76 | – | –
CCn1nc(C(=O)NC[C@H]2CC[C@H](S(C)(=O)=O)CC2)c(Cl)c1-c1ccc(C(O)(C(F)(F)F)C(F)(F)F)cc1OC(F)F [Example 116, 4-Chloro-5-(2-(difluoromethoxy)-4-(1,1,1,3,3,3-hexafluoro-2-hydroxypropan-2-yl)phenyl)-1-ethyl-N-(((1r,4r)-4-(methylsulfonyl)cyclohexyl)methyl)-1H-pyrazole-3-carboxamide] | 8.47 | 9.82 | – | – | inhibition at 3 µM (full-length human RORγt; [5]): 106%

More lines, main results first:

pIC50 (full-length human RORγt; [2]) | pKd [1, 3] | inhibition at 2 µM (full-length human RORγt; [4]) [%] | pKd ([1]; ThermoFluor® Assay, Kd) | SMILES | other results
8.70 | 9.80 | – | – | COCCn1nc(C(=O)NC[C@H]2CC[C@H](S(C)(=O)=O)CC2)c(Cl)c1-c1ccc(CC(C)(C)C(F)(F)F)cc1OC(F)F [Example 148, 4-Chloro-5-(2-(difluoromethoxy)-4-(3,3,3-trifluoro-2,2-dimethylpropyl)phenyl)-1-(2-methoxyethyl)-N-(((1r,4r)-4-(methylsulfonyl)cyclohexyl)methyl)-1H-pyrazole-3-carboxamide] | inhibition at 0.67 µM (full-length human RORγt; HEK-293T, 0.67 μM compound concentration (footnote ****), read-out: RORγt (FL) Reporter Assay A or B, % inhibition): 91%
– | 9.14 | – | – | CCC(=O)NS(=O)(=O)[C@H]1CC[C@H](CNC(=O)c2nn(CC)c(-c3ccc(CC(C)(C)C(F)(F)F)cc3OC(F)F)c2Cl)CC1 [Example 70, 4-Chloro-5-(2-(difluoromethoxy)-4-(3,3,3-trifluoro-2,2-dimethylpropyl)phenyl)-1-ethyl-N-(((r,4r)-4-(N-propionylsulfamoyl)cyclohexyl)methyl)-1H-pyrazole-3-carboxamide] | RORγt (FL) Reporter Assay A or B, % inhibition (full-length human RORγt; 3 μM compound concentration (footnote *)): 103* %; pIC50 (full-length human RORγt; HEK293T cells, read-out: RORγt (FL) Reporter Assay A or B, IC50): 7.64
6.92 | – | – | 8.77 | CCn1nc(C(=O)NC[C@]2(O)CC[C@@H](S(C)(=O)=O)C[C@H]2N)c(Cl)c1-c1ccc(CC(C)(C)C(F)(F)F)cc1OC(F)F (stereo in doubt) [Example 5, N-(((1RS,2RS,4RS)-2-Amino-1-hydroxy-4-(methylsulfonyl)cyclohexyl)methyl)-4-chloro-5-(2-(difluoromethoxy)-4-(3,3,3-trifluoro-2,2-dimethylpropyl)phenyl)-1-ethyl-1H-pyrazole-3-carboxamide Hydrobromide] | inhibition at 3 µM (full-length human RORγt; [5]): 103%
7.29 | – | – | 8.49 | CCn1nc(C(=O)NC[C@H]2CC[C@H](S(C)(=O)=O)C[NH+]2CC(=O)ON)c(Cl)c1-c1ccc(CC(C)(C)C(F)(F)F)cc1OC(F)F (stereo in doubt) [Example 64, N-(((2R*,5S*)-1-(2-(Aminooxy)-2-oxoethyl)-5-(methylsulfonyl)piperidin-2-yl)methyl)-4-chloro-5-(2-(difluoromethoxy)-4-(3,3,3-trifluoro-2,2-dimethylpropyl)phenyl)-1-ethyl-1H-pyrazole-3-carboxamide Trifluoroacetic Acid Salt] | inhibition at 3 µM (full-length human RORγt; [5]): 119%
8.77 | – | 103 | 9.43 | CCn1nc(C(=O)NC[C@@]2(O)CC[C@H](S(C)(=O)=O)C[C@@H]2O)c(Cl)c1-c1ccc(CC(C)(C)C(F)(F)F)cc1OC(F)F (single isomer, unassigned) [Example 47, 4-Chloro-5-(2-(difluoromethoxy)-4-(3,3,3-trifluoro-2,2-dimethylpropyl)phenyl)-N-(((1S*,2S*,4S*)-1,2-dihydroxy-4-(methylsulfonyl)cyclohexyl)methyl)-1-ethyl-1H-pyrazole-3-carboxamide] | –
7.82 | 7.82 | – | – | Cc1c(C(=O)NC[C@]2(O)CC[C@@H](S(C)(=O)=O)CC2)nn(CC(C)(C)O)c1-c1ccc(CC(C)(C)C(F)(F)F)cc1OC(F)F [Example 146, 5-(2-(Difluoromethoxy)-4-(3,3,3-trifluoro-2,2-dimethylpropyl)phenyl)-1-(2-hydroxy-2-methylpropyl)-N-(((1s,4s)-1-hydroxy-4-(methylsulfonyl)cyclohexyl)methyl)-4-methyl-1H-pyrazole-3-carboxamide] | inhibition at 3 µM (full-length human RORγt; [5]): 106%
8.44 | – | – | 9.43 | CCn1nc(C(=O)NC[C@H]2CC[C@H](S(C)(=O)=O)C[C@@H]2O)c(Cl)c1-c1ccc(CC(C)(C)C(F)(F)F)cc1OC(F)F (single isomer, unassigned) [Example 21, 4-Chloro-5-(2-(difluoromethoxy)-4-(3,3,3-trifluoro-2,2-dimethylpropyl)phenyl)-1-ethyl-N-(((1R*,2S*,4S*)-2-hydroxy-4-(methylsulfonyl)cyclohexyl)methyl)-H-pyrazole-3-carboxamide] | inhibition at […] (full-length human RORγt; HEK-293T, 0.33 μM compound concentration (footnote *****), read-out: RORγt (FL) Reporter Assay A or B, % inhibition): 103%
